target: HCoV-229E 3CL protease (Human coronavirus 229E, UniProt P0C6U2); experiment: FRET based protease assay, HCoV-229E 3CL; assay type: biochemical; settings: 229E IC50, 6 nM H229E-CoV Chis-3CLpro, 6 μM peptide 1 substrate, 25° C., 1.5 hrs, pH 7.5
Sequence (P0C6U2 2966-3267): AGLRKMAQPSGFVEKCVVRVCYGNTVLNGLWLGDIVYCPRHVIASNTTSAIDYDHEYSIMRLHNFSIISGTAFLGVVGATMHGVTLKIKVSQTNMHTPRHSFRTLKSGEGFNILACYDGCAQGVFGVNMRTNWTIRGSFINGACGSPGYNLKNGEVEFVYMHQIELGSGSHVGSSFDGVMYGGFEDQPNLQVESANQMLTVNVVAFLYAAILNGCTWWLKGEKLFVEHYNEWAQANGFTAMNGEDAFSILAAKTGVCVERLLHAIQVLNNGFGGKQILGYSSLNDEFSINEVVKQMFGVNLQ

Structure (SMILES)	IC50
CC(C)C[C@@H]1NC(=O)CCCC[C@@H]2CNC(=O)[C@@H]2C[C@@H](C=O)NC1=O [Example 1]	1000 to 20000 nM
CC(C)C[C@@H]1NC(=O)CCCC[C@H]2CNC(=O)[C@H]2C[C@@H](C=O)NC1=O [Example 2]	1000 to 20000 nM
CC(C)C[C@@H]1NC(=O)CCCC[C@H]2CNC(=O)[C@@H]2C[C@@H](C=O)NC1=O [Example 4]	< 100 nM
CC(C)C[C@@H]1NC(=O)[C@@H](Cc2ccccc2)CCC[C@@H]2CNC(=O)[C@@H]2C[C@@H](C=O)NC1=O [Example 9]	100 to 1000 nM
CC(C)C[C@@H]1NC(=O)[C@@H](Cc2ccccc2)CCC[C@H]2CNC(=O)[C@@H]2C[C@@H](C=O)NC1=O [Example 10]	1000 to 20000 nM
CC(C)C[C@@H]1NC(=O)[C@H](Cc2ccccc2)CCC[C@@H]2CNC(=O)[C@@H]2C[C@@H](C=O)NC1=O [Example 11]	100 to 1000 nM
CC(C)C[C@@H]1NC(=O)[C@H](Cc2ccccc2)CCC[C@H]2CNC(=O)[C@H]2C[C@@H](C=O)NC1=O [Example 12]	< 100 nM
CC(C)C[C@@H]1NC(=O)[C@@H](C2CCCC2)CCC[C@H]2CNC(=O)[C@H]2C[C@@H](C=O)NC1=O [Example 13]	100 to 1000 nM
CC(C)C[C@@H]1NC(=O)[C@@H](C2CCCC2)CCC[C@@H]2CNC(=O)[C@@H]2C[C@@H](C=O)NC1=O [Example 14]	100 to 1000 nM
CC(C)C[C@@H]1NC(=O)[C@@H](NC(=O)OC(C)(C)C)CCC[C@H]2CNC(=O)[C@H]2C[C@@H](C=O)NC1=O [Example 15]	100 to 1000 nM
CC(C)C[C@@H]1NC(=O)[C@@H](NC(=O)OC(C)(C)C)CCC[C@@H]2CNC(=O)[C@@H]2C[C@@H](C=O)NC1=O [Example 16]	1000 to 20000 nM
CC(C)C[C@@H]1NC(=O)[C@@H](Cc2ccccc2)CCC[C@H]2CNC(=O)[C@@H]2C[C@@H](C=O)NC1=O [Example 17]	100 to 1000 nM
CC(C)C[C@@H]1NC(=O)[C@@H](CC2CCCC2)CCC[C@H]2CNC(=O)[C@@H]2C[C@@H](C=O)NC1=O [Example 18]	100 to 1000 nM
CC(C)C[C@@H]1NC(=O)[C@@H](NC(=O)OC(C)(C)C)CCC[C@H]2CNC(=O)[C@@H]2C[C@@H](C=O)NC1=O [Example 19]	< 100 nM
CC(C)C[C@@H]1NC(=O)[C@@H](OC(C)(C)C)CCC[C@H]2CNC(=O)[C@@H]2C[C@@H](C=O)NC1=O [Example 20]	1000 to 20000 nM
CC(C)C[C@@H]1NC(=O)[C@H](Cc2ccccc2)CCC[C@H]2CNC(=O)[C@@H]2C[C@@H](C=O)NC1=O [Example 21]	< 100 nM
CC(C)C[C@@H]1NC(=O)[C@@H](N(C)C(=O)OC(C)(C)C)CCC[C@H]2CNC(=O)[C@@H]2C[C@@H](C#N)NC1=O [Example 22]	1000 to 20000 nM
CC(C)C[C@@H]1NC(=O)C(OC2CCCCC2)CCC[C@H]2CNC(=O)[C@@H]2C[C@@H](C#N)NC1=O (stereo partly drawn) [Example 23]	> 20000 nM
CC(C)C[C@@H]1NC(=O)CCCC[C@H]2CNC(=O)[C@@H]2C[C@@H](C#N)NC1=O [Example 24]	100 to 1000 nM
CC1(C)[C@@H]2[C@H]3C(=O)N[C@H](C#N)C[C@H]4C(=O)NC[C@@H]4CCCCC(=O)N3C[C@@H]21 [Example 25]	100 to 1000 nM
N#C[C@@H]1C[C@H]2C(=O)NC[C@@H]2CCCCC(=O)N2C[C@@H]3CCC[C@@H]3[C@H]2C(=O)N1 [Example 26]	1000 to 20000 nM

Structure (SMILES)	IC50
CC(C)C[C@@H]1NC(=O)[C@@H](Cc2ccccc2)CCC[C@H]2CNC(=O)[C@@H]2C[C@@H](C#N)NC1=O [Example 27]	1000 to 20000 nM
CC(C)C[C@@H]1NC(=O)[C@@H](C2CCCC2)CCC[C@H]2CNC(=O)[C@@H]2C[C@@H](C#N)NC1=O [Example 28]	1000 to 20000 nM
CC(C)C[C@@H]1NC(=O)[C@@H](OC(C)(C)C)CCC[C@H]2CNC(=O)[C@@H]2C[C@@H](C#N)NC1=O [Example 29]	> 20000 nM
CC(C)C[C@@H]1NC(=O)CCCCC[C@H]2CNC(=O)[C@H]2C[C@@H](C=O)NC1=O [Example 30]	< 100 nM
CC(C)C[C@@H]1NC(=O)CCCCC[C@@H]2CNC(=O)[C@H]2C[C@@H](C=O)NC1=O [Example 31]	1000 to 20000 nM
CC(C)C[C@@H]1NC(=O)CCCCC[C@H]2CNC(=O)[C@@H]2C[C@@H](C=O)NC1=O [Example 32]	< 100 nM
CC(C)C[C@@H]1NC(=O)CCCCC[C@@H]2CCNC(=O)[C@H]2C[C@@H](C=O)NC1=O [Example 33]	1000 to 20000 nM
CC(C)C[C@@H]1NC(=O)CCCCC[C@H]2CCNC(=O)[C@@H]2C[C@@H](C=O)NC1=O [Example 34]	100 to 1000 nM
CC(C)C[C@@H]1NC(=O)[C@@H](Cc2ccccc2)CCCC[C@@H]2CNC(=O)[C@@H]2C[C@@H](C=O)NC1=O [Example 35]	1000 to 20000 nM
CC(C)C[C@@H]1NC(=O)[C@@H](Cc2ccccc2)CCCC[C@H]2CNC(=O)[C@H]2C[C@@H](C=O)NC1=O [Example 36]	< 100 nM
CC(C)C[C@@H]1NC(=O)[C@@H](Cc2ccccc2)CCCC[C@H]2CNC(=O)[C@@H]2C[C@@H](C=O)NC1=O [Example 37]	< 100 nM
CC(C)C[C@@H]1NC(=O)CCCCC[C@H]2CNC(=O)[C@H]2C[C@@H](C#N)NC1=O [Example 38]	100 to 1000 nM
CC(C)C[C@@H]1NC(=O)[C@@H](Cc2ccccc2)CCCC[C@H]2CNC(=O)[C@H]2C[C@@H](C#N)NC1=O [Example 39]	100 to 1000 nM
CC(C)C[C@@H]1NC(=O)[C@@H](Cc2cccc(C(F)(F)F)c2)CCCC[C@H]2CNC(=O)[C@H]2C[C@@H](C#N)NC1=O [Example 40]	1000 to 20000 nM
CC(C)C[C@@H]1NC(=O)[C@@H](C2CCCC2)CCCC[C@H]2CNC(=O)[C@H]2C[C@@H](C#N)NC1=O [Example 41]	> 20000 nM
CC(C)C[C@@H]1NC(=O)[C@@H](Cc2ccc(F)cc2)CCCC[C@@H]2CNC(=O)[C@@H]2C[C@@H](C#N)NC1=O [Example 42]	100 to 1000 nM
CC(C)C[C@@H]1NC(=O)[C@@H](Cc2ccc(F)cc2)CCCC[C@H]2CNC(=O)[C@H]2C[C@@H](C#N)NC1=O [Example 43]	100 to 1000 nM
CC(C)C[C@@H]1NC(=O)[C@@H](NC(=O)C(C)(C)C)CCCC[C@H]2CNC(=O)[C@H]2C[C@@H](C#N)NC1=O [Example 44]	< 100 nM
CC(C)C[C@@H]1NC(=O)CCCCCC[C@H]2CNC(=O)[C@H]2C[C@@H](C=O)NC1=O [Example 45]	< 100 nM
CC(C)C[C@@H]1NC(=O)CCCCCC[C@@H]2CNC(=O)[C@@H]2C[C@@H](C=O)NC1=O [Example 46]	100 to 1000 nM
CC(C)C[C@@H]1NC(=O)CCCCCC[C@@H]2CNC(=O)[C@H]2C[C@@H](C=O)NC1=O [Example 47]	100 to 1000 nM

Structure (SMILES)	IC50
CC(C)C[C@@H]1NC(=O)CCCCCC[C@H]2CNC(=O)[C@@H]2C[C@@H](C=O)NC1=O [Example 48]	< 100 nM
CC(C)C[C@@H]1NC(=O)[C@@H](Cc2ccccc2)CCCCC[C@@H]2CNC(=O)[C@@H]2C[C@@H](C#N)NC1=O [Example 49]	> 20000 nM
CC(C)C[C@@H]1NC(=O)[C@@H](Cc2ccccc2)CCCCC[C@H]2CNC(=O)[C@H]2C[C@@H](C#N)NC1=O [Example 50]	1000 to 20000 nM
CC(C)C[C@@H]1NC(=O)CCCCCC[C@@H]2CNCC(=O)[C@H]2C[C@@H](C=O)NC1=O [Example 51]	1000 to 20000 nM
CC(C)C[C@@H]1NC(=O)CCCCCC[C@H]2CNCC(=O)[C@@H]2C[C@@H](C=O)NC1=O [Example 52]	100 to 1000 nM
CC(C)(C)C[C@@H]1NC(=O)[C@@H](NC(=O)C(C)(C)C)CCCC[C@H]2CNC(=O)[C@H]2C[C@@H](C#N)NC1=O [Example 53]	< 100 nM
CC(C)C[C@@H]1NC(=O)[C@@H](NC(=O)C(C)(C)C)CCCC[C@H]2CNC(=O)[C@@H]2C[C@@H](C#N)NC1=O [Example 54]	1000 to 20000 nM
CC(C)(C)C(=O)N[C@H]1CCCC[C@H]2CNC(=O)[C@H]2C[C@@H](C#N)NC(=O)[C@@H]2[C@@H]3[C@H](CN2C1=O)C3(C)C [Example 55]	< 100 nM
CC(C)C[C@@H]1NC(=O)[C@@H](NC(=O)OC(C)(C)C)CCCC[C@H]2CNC(=O)[C@H]2C[C@@H](C#N)NC1=O [Example 56]	< 100 nM
CC(C)C[C@H]1C(=O)N[C@H](C#N)C[C@@H]2C(=O)NC[C@@H]2CCCC[C@H](NC(=O)C(C)(C)C)C(=O)N1C [Example 57]	100 to 1000 nM
CC(C)C[C@@H]1NC(=O)[C@@H](NC(=O)C(C)(C)C)CC/C=C/[C@H]2CNC(=O)[C@H]2C[C@@H](C#N)NC1=O [Example 58]	< 100 nM
CC(C)C[C@@H]1NC(=O)[C@@H](NC(=O)C(C)(C)C)CC/C=C\[C@H]2CNC(=O)[C@H]2C[C@@H](C#N)NC1=O [Example 59]	100 to 1000 nM
CC(C)(C)C[C@@H]1NC(=O)[C@@H](NC(=O)OC(C)(C)C)CCCC[C@H]2CNC(=O)[C@H]2C[C@@H](C#N)NC1=O [Example 60]	< 100 nM
CC(C)(C)C(=O)N[C@H]1CC/C=C/[C@H]2CNC(=O)[C@H]2C[C@@H](C#N)NC(=O)[C@@H]2[C@@H]3[C@H](CN2C1=O)C3(C)C [Example 61]	< 100 nM
CC1(C)[C@@H]2[C@H]3C(=O)N[C@H](C#N)C[C@@H]4C(=O)NC[C@@H]4CCCC[C@H](NC(=O)C4CC(F)(F)C4)C(=O)N3C[C@@H]21 [Example 62]	< 100 nM
CC(C)(C)C(=O)N[C@H]1C/C=C/[C@H]2CNC(=O)[C@H]2C[C@@H](C#N)NC(=O)[C@@H]2[C@@H]3[C@H](CN2C1=O)C3(C)C [Example 63]	< 100 nM
CC(C)(C)C(=O)N[C@H]1C/C=C\[C@H]2CNC(=O)[C@H]2C[C@@H](C#N)NC(=O)[C@@H]2[C@@H]3[C@H](CN2C1=O)C3(C)C [Example 64]	1000 to 20000 nM
CC(C)(C)C(=O)N[C@H]1CCCC[C@H]2CCNC(=O)[C@@H]2C[C@@H](C#N)NC(=O)[C@@H]2[C@@H]3[C@H](CN2C1=O)C3(C)C [Example 65]	1000 to 20000 nM
CC(C)(C)C(=O)N[C@H]1CCC[C@H]2CCNC(=O)[C@@H]2C[C@@H](C#N)NC(=O)[C@@H]2[C@@H]3[C@H](CN2C1=O)C3(C)C [Example 66]	100 to 1000 nM
CC(C)(C)C(=O)N[C@H]1CCCC[C@H]2CNC(=O)[C@@H]2C[C@@H](C#N)NC(=O)[C@@H]2[C@@H]3[C@H](CN2C1=O)C3(C)C [Example 67]	100 to 1000 nM
CC1(C)[C@@H]2[C@H]3C(=O)N[C@H](C#N)C[C@@H]4C(=O)NC[C@@H]4CCCC[C@H](NC(=O)C4CCC(F)(F)CC4)C(=O)N3C[C@@H]21 [Example 68]	< 100 nM

Reference: patent publication US20260325540A1 (priority 2023, published 2026)
